Values quoted from earlier work in patent US10966960B2 (Treeway TW001 B.V., priority 2017, dated 2021).
Values after ≈ are worked out from the molar mass of the structure shown.

Conditions: 25° C.

In the case of `CC1=NN(c2ccccc2)C(=O)C1` [edaravone, 3-methyl-1-phenyl-2-pyrazolin-5-one], the solubility in water is listed as ~1850 µg/mL (≈ 10.6 mM).
